How the values were obtained:
[1] = Clinical pharmacological trial: pharmacokinetics after single-dose edoxaban 15 mg in individuals with renal functional impairment; settings: for AUC(0-t) / concentration at 24 h / CL renal / Cmax / half-life / Tmax: human, in vivo, 15 mg; for AUC(0-t): AUC0-24h Geometric least squares mean; for AUC(0-t) / concentration at 24 h / CL renal / Cmax / half-life / Tmax / AUC0-24h Geometric least squares mean ratio to healthy adult / Cmax Geometric least squares mean ratio to healthy adult: single-dose 15 mg; for concentration at 24 h: C24h Geometric mean (plasma edoxaban concentration 24 hours after administration); for CL renal: CLR Geometric mean (renal clearance); for Cmax: Cmax Geometric least squares mean; for half-life: t1/2 Geometric least squares mean; for Tmax: tmax Least squares mean
Description: Edoxaban was subjected to a clinical trial targeting individuals with renal functional impairment, in which edoxaban was studied for its pharmacokinetics in the individuals with renal functional impairment (Non-patent literature 4). In this clinical trial, 15 mg of edoxaban was administered at a single dose to each patient in five groups differing in the severity of renal functional impairment.

[2] = tested on: NVAF patients; test: Late phase-II trial targeting NVAF patient in Japan (thromboembolic and bleeding events, 12 weeks); format: in vivo, human; settings: 12 weeks
[3] = healthy adult (CLCR > 80 mL/min)
[4] = mild renal impairment (50 ≦ CLCR ≦ 80 mL/min)
[5] = moderate renal impairment (30 ≦ CLCR < 50 mL/min)
[6] = severe renal impairment (CLCR < 30 mL/min, nondialyzed)
[7] = individuals with severe renal impairment
[8] = 30 mg×1/day, 30 ≦ CLCR < 50 mL/min
[9] = 30 mg×1/day, 50 ≦ CLCR ≦ 80 mL/min
[10] = 45 mg×1/day, 30 ≦ CLCR < 50 mL/min
[11] = 45 mg×1/day, 50 ≦ CLCR ≦ 80 mL/min
[12] = 60 mg×1/day, 30 ≦ CLCR < 50 mL/min
[13] = 60 mg×1/day, 50 ≦ CLCR ≦ 80 mL/min

## CN1CCc2nc(C(=O)N[C@@H]3C[C@@H](C(=O)N(C)C)CC[C@@H]3NC(=O)C(=O)Nc3ccc(Cl)cn3)sc2C1 [edoxaban, N^1-(5-chloropyridin-2-yl)-N^2-((1S,2R,4S)-4-[(dimethylamino)carbonyl]-2-{[(5-methyl-4,5,6,7-tetrahydrothiazolo[5,4-c]pyridin-2-yl)carbonyl]amino}cyclohexyl)ethanediamide]
[1]; [3]
  AUC(0-t): 440 ng·h/mL
  concentration at 24 h: 2.34 ng/mL
  CL renal: 197 mL/min
  Cmax: 88.8 ng/mL
  half-life: 8.6 h
  Tmax: 1.5 h
[1]; [4]
  AUC(0-t): 569 ng·h/mL
  concentration at 24 h: 3.44 ng/mL
  CL renal: 121 mL/min
  Cmax: 104 ng/mL
  half-life: 8.15 h
  Tmax: 1.88 h
  AUC0-24h Geometric least squares mean ratio to healthy adult: 1.29
  Cmax Geometric least squares mean ratio to healthy adult: 1.17
[1]; [5]
  AUC(0-t): 726 ng·h/mL
  concentration at 24 h: 5.9 ng/mL
  CL renal: 67.4 mL/min
  Cmax: 113 ng/mL
  half-life: 9.44 h
  Tmax: 1.38 h
  AUC0-24h Geometric least squares mean ratio to healthy adult: 1.65
  Cmax Geometric least squares mean ratio to healthy adult: 1.27
[1]; peritoneal dialysis patient
  AUC(0-t): 770 ng·h/mL
  concentration at 24 h: 8.24 ng/mL
  Cmax: 83.8 ng/mL
  half-life: 12.2 h
  Tmax: 2.37 h
  AUC0-24h Geometric least squares mean ratio to healthy adult: 1.75
  Cmax Geometric least squares mean ratio to healthy adult: 0.944
[1]; [6]
  AUC(0-t): 661 ng·h/mL
  concentration at 24 h: 6.88 ng/mL
  CL renal: 32.5 mL/min
  Cmax: 83.6 ng/mL
  half-life: 16.9 h
  Tmax: 1.7 h
  AUC0-24h Geometric least squares mean ratio to healthy adult: 1.50
  Cmax Geometric least squares mean ratio to healthy adult: 0.941
[1]; individuals with moderate renal impairment
  Increase of C24 h compared with healthy adults: 2.52 times
[1]; [7]
  Degree of the rise in C24 h relative to healthy adults: approximately 3 times
  Degree of the rise in C24 h relative to individuals with mild renal impairment: approximately 2 times
[2]; [8]
  Bleeding event (major, clinically relevant non-major and minor in total), subjects with event/subjects: (3/15)
  Incidence of bleeding event (major, clinically relevant non-major and minor bleeding in total): 20.0%
  Incidence of major bleeding or clinically relevant non-major bleeding: 6.7%
  Major bleeding or clinically relevant non-major bleeding, subjects with event/subjects: (1/15)
[2]; [9]
  Bleeding event (major, clinically relevant non-major and minor in total), subjects with event/subjects: (14/69)
  Incidence of bleeding event (major, clinically relevant non-major and minor bleeding in total): 20.3%
  Incidence of major bleeding or clinically relevant non-major bleeding: 1.4%
  Major bleeding or clinically relevant non-major bleeding, subjects with event/subjects: (1/69)
[2]; 30 mg×1/day, 80 < CLCR mL/min
  Bleeding event (major, clinically relevant non-major and minor in total), subjects with event/subjects: (7/46)
  Incidence of bleeding event (major, clinically relevant non-major and minor bleeding in total): 15.2%
  Incidence of major bleeding or clinically relevant non-major bleeding: 0%
  Major bleeding or clinically relevant non-major bleeding, subjects with event/subjects: (0/46)
[2]; [10]
  Bleeding event (major, clinically relevant non-major and minor in total), subjects with event/subjects: (6/21)
  Incidence of bleeding event (major, clinically relevant non-major and minor bleeding in total): 28.6%
  Incidence of major bleeding or clinically relevant non-major bleeding: 9.5%
  Major bleeding or clinically relevant non-major bleeding, subjects with event/subjects: (2/21)
[2]; [11]
  Bleeding event (major, clinically relevant non-major and minor in total), subjects with event/subjects: (19/72)
  Incidence of bleeding event (major, clinically relevant non-major and minor bleeding in total): 26.4%
  Incidence of major bleeding or clinically relevant non-major bleeding: 4.2%
  Major bleeding or clinically relevant non-major bleeding, subjects with event/subjects: (3/72)
[2]; 45 mg×1/day, 80 < CLCR mL/min
  Bleeding event (major, clinically relevant non-major and minor in total), subjects with event/subjects: (5/41)
  Incidence of bleeding event (major, clinically relevant non-major and minor bleeding in total): 12.2%
  Incidence of major bleeding or clinically relevant non-major bleeding: 4.9%
  Major bleeding or clinically relevant non-major bleeding, subjects with event/subjects: (2/41)
[2]; [12]
  Bleeding event (major, clinically relevant non-major and minor in total), subjects with event/subjects: (4/15)
  Incidence of bleeding event (major, clinically relevant non-major and minor bleeding in total): 26.7%
  Incidence of major bleeding or clinically relevant non-major bleeding: 0%
  Major bleeding or clinically relevant non-major bleeding, subjects with event/subjects: (0/15)
[2]; [13]
  Bleeding event (major, clinically relevant non-major and minor in total), subjects with event/subjects: (21/68)
  Incidence of bleeding event (major, clinically relevant non-major and minor bleeding in total): 30.9%
  Incidence of major bleeding or clinically relevant non-major bleeding: 10.3%
  Major bleeding or clinically relevant non-major bleeding, subjects with event/subjects: (7/68)
[2]; 60 mg×1/day, 80 < CLCR mL/min
  Bleeding event (major, clinically relevant non-major and minor in total), subjects with event/subjects: (10/46)
  Incidence of bleeding event (major, clinically relevant non-major and minor bleeding in total): 21.7%
  Incidence of major bleeding or clinically relevant non-major bleeding: 0%
  Major bleeding or clinically relevant non-major bleeding, subjects with event/subjects: (0/46)
[2]; 60 mg×1/day, CLCR < 30 mL/min
  Bleeding event (major, clinically relevant non-major and minor in total), subjects with event/subjects: (1/1)

Reference: US20140371262A1, “PREVENTIVE AND/OR THERAPEUTIC AGENT FOR THROMBOEMBOLISM IN THROMBOEMBOLISM PATIENT WITH SEVERE RENAL IMPAIRMENT” (Daiichi Sankyo Company, Limited, priority 2011, published 2014)
